16 compounds from PubChem BioAssay (NCI) can be followed below.

Molecules are shown by their SMILES.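 Step 1: Grow cells in 96-well plates. Step 2: Expose to compound for 48 hours at 5 concentrations. Step 3: Interpolate endpoints linearly; if unreached, use highest concentration. Here, GI50 denotes the concentration required for 50% inhibition of growth. TGI: concentration producing complete growth inhibition.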

Test systems include SN12C renal; UACC-257 melanoma; U251 CNS; HCC-2998 colon; 786-0 renal; LOX IMVI melanoma; SNB-78 CNS; XF 498 CNS; DLD-1 colon; KM20L2 colon; HOP-18 NSCLC; DMS 114 small cell lung; DMS 273 small cell lung; M19-MEL melanoma; LXFL 529 NSCLC.
What all share (experiment): NCI anticancer screen, dose series, 48 h

With `COc1cc2oc(=O)ccc2cc1C(=O)CC(C)C`, the TGI in the test with SN12C renal, with UACC-257 melanoma, in the test with U251 CNS, in the test on HCC-2998 colon, with 786-0 renal and in the test with LOX IMVI melanoma was more than 100 µM each time.

For the compound `CC(C)(C)OC(=O)NC(CCCCNC(=O)OCc1ccccc1)C(=O)NCCNc1ccc(NCCNC(=O)C(CCCCNC(=O)OCc2ccccc2)NC(=O)OC(C)(C)C)c2c1C(=O)c1ccccc1C2=O` (configuration not stated), the TGI with SN12C renal was more than 100 µM; in the test with UACC-257 melanoma, more than 100 µM; with U251 CNS, 17.1 µM; with HCC-2998 colon it was more than 100 µM; in the test with 786-0 renal, more than 100 µM; with LOX IMVI melanoma, more than 100 µM.

Consider `CC(=O)OC1CC[C@@]2(C)C(=CC[C@@H]3[C@@H]2CC[C@]2(C)Nc4nn(S(C)(=O)=O)cc4C[C@@H]32)C1` (some centres not stated), for which the TGI in the test with SN12C renal, in the test with U251 CNS and with HCC-2998 colon was more than 100 µM in each case.

Regarding `O=C(CSc1nc2ccc([N+](=O)[O-])cc2s1)c1ccc2ccccc2c1`, the TGI with SN12C renal, in the test with UACC-257 melanoma, in the test on U251 CNS, in the test with HCC-2998 colon, with 786-0 renal and in the test on LOX IMVI melanoma was more than 100 µM in each case.

As for `Cc1ccccc1N=Nc1c(O)c(S(=O)(=O)O)cc2cc(S(=O)(=O)O)ccc12`, the TGI with SN12C renal, in the test on UACC-257 melanoma, in the test with U251 CNS, in the test on HCC-2998 colon and with 786-0 renal was more than 100 µM each time.

On to `Cn1c(=O)[nH]c2nncnc2c1=O`, for which the TGI in the test on SN12C renal was more than 497 µM; in the test with SNB-78 CNS, more than 625 µM; with XF 498 CNS, 245 µM; in the test on UACC-257 melanoma it was 302 µM; with DLD-1 colon it was more than 625 µM; with KM20L2 colon, more than 306 µM. Further, the TGI was 312 µM in the test with U251 CNS; more than 442 µM with HCC-2998 colon; 61.1 µM with HOP-18 NSCLC; 345 µM in the test on DMS 114 small cell lung; 106 µM in the test with DMS 273 small cell lung; more than 625 µM in the test on LOX IMVI melanoma. The same compound displayed a TGI in the test on M19-MEL melanoma of 115 µM.

Regarding `Nc1ncnc2c1sc1nc3ccccc3n12`, the TGI with SN12C renal, in the test on UACC-257 melanoma, with U251 CNS and in the test on HCC-2998 colon was more than 100 µM throughout.

In the case of `COCC1CCCN1c1ccc(C=N/C(C#N)=C(\N)C#N)cc1` (configuration not stated), the GI50 in the test with SN12C renal was 4.85 µM; in the test with UACC-257 melanoma it was more than 100 µM; in the test on U251 CNS, 17.2 µM; with HCC-2998 colon, more than 100 µM; in the test with LOX IMVI melanoma, more than 100 µM. The TGI with SN12C renal is 84.5 µM; in the test with UACC-257 melanoma, more than 100 µM; in the test with U251 CNS it was more than 100 µM; in the test on HCC-2998 colon it was more than 100 µM; in the test with LOX IMVI melanoma it was more than 100 µM.

Take `O=c1c2cc(I)ccc2nc(SCc2nncs2)n1Cc1ccccc1`: the TGI in the test with SN12C renal, in the test with UACC-257 melanoma, with U251 CNS, with HCC-2998 colon, in the test with 786-0 renal and in the test on LOX IMVI melanoma was more than 100 µM in each case.

As for `Clc1ccccc1/C=c1\nc(-c2ccccc2)n2c1nc1ccccc12`, the TGI was more than 100 µM in the test on SN12C renal; more than 100 µM in the test on UACC-257 melanoma; 61.3 µM with U251 CNS; more than 100 µM with 786-0 renal; more than 100 µM in the test on LOX IMVI melanoma.

As to `COc1ccc(C(=O)C2=NON3OC23C(=O)c2ccc(OC)cc2)cc1` (configuration not stated), the TGI is 28.6 µM in the test on SN12C renal; 42.3 µM in the test on SNB-78 CNS; 23.9 µM in the test with XF 498 CNS; 34.9 µM with UACC-257 melanoma; 21.5 µM in the test with DLD-1 colon; 35.5 µM in the test with KM20L2 colon. The TGI in the test with U251 CNS was found to be 30.3 µM; in the test with HCC-2998 colon, 32.8 µM; with LXFL 529 NSCLC, 6.68 µM; in the test with HOP-18 NSCLC, 33.7 µM; with 786-0 renal, 10.6 µM; with DMS 114 small cell lung, 11.1 µM. For the same compound, the TGI came out at 36.4 µM in the test with DMS 273 small cell lung, 11.4 µM with LOX IMVI melanoma and 32.8 µM in the test on M19-MEL melanoma.

Regarding `Cc1coc2c1C[C@@]1(C)[C@H](CCC[C@@H]1C)[C@H]2O`, the TGI was 55.5 µM with SN12C renal; 88.3 µM in the test with UACC-257 melanoma; more than 100 µM in the test with U251 CNS; more than 100 µM in the test on HCC-2998 colon; more than 100 µM in the test with LOX IMVI melanoma.

Take `COc1c(CC=C(C)C)c(O)c(C(CC(C)C)c2c(O)c3c(c(C(C)=O)c2O)OC(C(C)(C)O)C3)c(O)c1C(C)=O` (configuration not stated): the TGI in the test with SN12C renal is more than 12.5 µM; in the test on UACC-257 melanoma it was 12.4 µM; with HCC-2998 colon it was more than 12.5 µM; in the test on 786-0 renal, more than 12.5 µM; in the test with LOX IMVI melanoma it was more than 12.5 µM.

On to `O=c1[nH]c(Nc2ccc(Cl)c(C(F)(F)F)c2)nc2nc[nH]c12`, for which the TGI is more than 100 µM with SN12C renal; more than 100 µM in the test with UACC-257 melanoma; more than 100 µM with U251 CNS; 57.4 µM with HCC-2998 colon; 74.8 µM in the test with 786-0 renal; 81.7 µM in the test with LOX IMVI melanoma.

`O=C(O[C@@H](/C=C/c1ccccc1)P1(=O)N(Cc2ccccc2)[C@H]2CCCC[C@@H]2N1Cc1ccccc1)c1ccccc1`: the TGI in the test with SN12C renal is 6.74 µM; with UACC-257 melanoma, 9.43 µM; with U251 CNS, 11.1 µM; with HCC-2998 colon, 18.2 µM; with 786-0 renal, more than 100 µM; with LOX IMVI melanoma, 14 µM.

`O=C(O)c1ccc(C(=O)c2ccccc2C(=O)O)cc1C(=O)O`: the TGI in the test with SN12C renal, with UACC-257 melanoma, in the test with U251 CNS, with HCC-2998 colon, with 786-0 renal and with LOX IMVI melanoma was more than 100 µM in each case.
